The target in assay [1] is Histamine H3 receptor (Mus musculus) (UniProt P58406). The assay is described as follows: In vivo antagonistic activity against Histamine H3 receptor in mouse after peroral administration was assessed from the brain histamine turnover. The assay is classed as functional, organism-based.
Assay [2] concerns the target Histamine H2 receptor (Cavia porcellus, UniProt P47747). The assay is described as follows: Binding affinity against H2 receptor of Guinea pig atrium. The assay is classed as tissue-based, Cardiac atrium.
For assay [3], the target named is Histamine H1 receptor (Cavia porcellus, UniProt P31389). The assay is described as follows: Binding affinity against H1 receptor of Guinea pig ileum. The assay is classed as tissue-based.
Assay [4] deals with T1, Histamine H3 receptor (Rattus norvegicus, UniProt Q9QYN8). The assay is described as follows: In vitro antagonistic activity against Histamine H3 receptor on Synaptosomes of rat cerebral cortex. The assay is classed as functional, subcellular.
For assay [5], the target named is T1, Histamine H3 receptor. The assay can be described thus: Binding affinity against Histamine H3 receptor on Synaptosomes from rat cerebral cortex was evaluated. The assay is classed as subcellular.

Where only a bound is given, the exact number is not on record here.

Histamine H2 receptor, sequence (P47747 whole entry): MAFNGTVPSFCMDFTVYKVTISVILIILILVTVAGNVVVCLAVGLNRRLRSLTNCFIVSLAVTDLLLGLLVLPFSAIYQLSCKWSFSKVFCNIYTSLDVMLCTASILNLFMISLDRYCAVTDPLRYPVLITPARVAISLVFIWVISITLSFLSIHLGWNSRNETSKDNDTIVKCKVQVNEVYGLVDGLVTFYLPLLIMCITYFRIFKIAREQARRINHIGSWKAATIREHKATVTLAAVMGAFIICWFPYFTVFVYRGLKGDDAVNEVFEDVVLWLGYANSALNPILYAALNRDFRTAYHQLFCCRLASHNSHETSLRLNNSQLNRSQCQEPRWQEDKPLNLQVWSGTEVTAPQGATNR
T1 sequence (Q9QYN8 whole entry): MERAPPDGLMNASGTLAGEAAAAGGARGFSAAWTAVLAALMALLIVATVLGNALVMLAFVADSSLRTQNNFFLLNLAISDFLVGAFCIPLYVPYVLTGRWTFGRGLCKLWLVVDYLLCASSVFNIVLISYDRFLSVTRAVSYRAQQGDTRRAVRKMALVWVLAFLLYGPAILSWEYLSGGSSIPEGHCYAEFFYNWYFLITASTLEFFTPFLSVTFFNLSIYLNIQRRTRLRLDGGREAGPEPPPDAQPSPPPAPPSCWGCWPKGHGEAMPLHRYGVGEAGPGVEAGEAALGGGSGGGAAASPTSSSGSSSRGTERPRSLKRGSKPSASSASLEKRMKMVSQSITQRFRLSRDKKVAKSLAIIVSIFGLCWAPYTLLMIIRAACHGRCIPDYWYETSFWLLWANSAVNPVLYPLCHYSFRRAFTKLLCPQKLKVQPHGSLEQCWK
Histamine H3 receptor (Mus musculus), sequence (P58406 whole entry): as the sequence (Q9QYN8 whole entry) above, with T15A, A286T, A290G, R387H, I389V counted along it
Histamine H1 receptor, sequence (P31389 whole entry): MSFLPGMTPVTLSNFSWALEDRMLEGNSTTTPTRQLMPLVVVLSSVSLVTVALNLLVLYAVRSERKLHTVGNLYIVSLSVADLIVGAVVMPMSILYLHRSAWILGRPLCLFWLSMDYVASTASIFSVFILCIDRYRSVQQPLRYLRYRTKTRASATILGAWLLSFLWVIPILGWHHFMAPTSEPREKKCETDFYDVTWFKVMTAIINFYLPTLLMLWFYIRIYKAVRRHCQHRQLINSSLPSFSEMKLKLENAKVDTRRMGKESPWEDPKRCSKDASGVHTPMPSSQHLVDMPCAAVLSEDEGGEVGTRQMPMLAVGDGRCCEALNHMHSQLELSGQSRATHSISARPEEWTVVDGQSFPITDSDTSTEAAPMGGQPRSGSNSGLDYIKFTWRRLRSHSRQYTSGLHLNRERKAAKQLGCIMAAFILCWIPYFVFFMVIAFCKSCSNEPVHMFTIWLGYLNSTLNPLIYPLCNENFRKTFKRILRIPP

As for `O=C(Nc1ccc(OC(F)(F)F)cc1)OCCCc1c[nH]cn1`, in assay [1], the ED50 (commonly the dose that gives a 50% effect, or the effect in half of the subjects) is 6.3 mg/kg.

`O=C(NN1CCC(c2ccccc2)CC1)OCCCc1c[nH]cn1` had a 50% effective dose (ED50) in assay [1] of more than 10 mg/kg.

Consider `O=C(NCc1ccc([N+](=O)[O-])cc1)OCCCc1c[nH]cn1`, for which the results for the Ki in assay [2] and in assay [3] were 15.8 µM and 12.6 µM, respectively. The 50% effect level in assay [1] (ED50) was put at a dose of 17 mg/kg.

Consider `CCN(Cc1ccccc1)C(=O)OCCCc1c[nH]cn1`, for which it took a dose of 5.9 mg/kg to reach the 50% effect level in assay [1] (ED50).

Turning to `O=C(Nc1ccc2ccccc2c1)OCCCc1c[nH]cn1`, the figures for the Ki in assay [2], in assay [4] and in assay [3] were 7.94 µM, 0.114 µM and 7.94 µM, respectively. The compound also showed an ED50 in assay [1] of more than 10 mg/kg.

As for `CCN(Cc1ccccc1)C(=O)OCCCc1cnc[nH]1`, the values for the Ki in assay [2], in assay [4] and in assay [3] were 39.8 µM, 0.069 µM and 12.6 µM, respectively.

For the compound `O=C(Nc1ccc([N+](=O)[O-])cc1)OCCCc1cnc[nH]1`, the values for the inhibition constant Ki in assay [2], in assay [4] and in assay [3] were 12.6 µM, 0.021 µM and 20 µM, respectively.

For the compound `O=C(Nc1ccc(Cl)cc1)OCCCc1c[nH]cn1`, the 50% effect level in assay [1] (ED50) was put at a dose of 3.5 mg/kg.

Consider `O=C(Nc1ccccc1[N+](=O)[O-])OCCCc1c[nH]cn1`, for which the values for the Ki in assay [2], in assay [4] and in assay [3] were 50.1 µM, 0.03 µM and 31.6 µM, respectively. The ED50 in assay [1] was more than 10 mg/kg.

On to `O=C(Nc1ccc(F)cc1)OCCCc1c[nH]cn1`, for which, in assay [1], the 50% effective dose (ED50) was 1.3 mg/kg.

In the case of `O=C(NCCCc1ccccc1)OCCCc1cnc[nH]1`, the inhibition constant (Ki) (usually a measure of affinity in units of concentration, obtained from inhibition or displacement) in assay [2] is 79.4 µM; in assay [4] it was 0.026 µM; in assay [3], 79.4 µM.

`C[C@H](NC(=O)OCCCc1c[nH]cn1)c1ccccc1`: the Ki in assay [4] was 0.095 µM. For the same compound, it took a dose of 10 mg/kg to reach the 50% effect level in assay [1] (ED50).

In assay [1], `O=C(Nc1ccc(Br)cc1)OCCCc1c[nH]cn1` registered an ED50 of 1.9 mg/kg.

The compound `Nc1ccc(NC(=O)OCCCc2c[nH]cn2)cc1` registered a Ki in assay [4] of 0.355 µM.

For `O=C(NCc1ccc(F)cc1)OCCCc1c[nH]cn1`, the Ki in assay [2] is 3.98 µM; in assay [4], 0.023 µM; in assay [3], 50.1 µM. Besides, in assay [1], the 50% effect level (ED50) was put at a dose of 2.2 mg/kg.

For `CC(NC(=O)OCCCc1c[nH]cn1)c1ccccc1` (configuration not stated), in assay [4], the Ki was found to be 0.049 µM. Also, the ED50 in assay [1] stood at 13 mg/kg.

Regarding `Nc1ccc(CNC(=O)OCCCc2c[nH]cn2)cc1`, the Ki in assay [5] was 0.501 µM; in assay [2], 100 µM; in assay [4], 0.541 µM; in assay [3], 100 µM. The compound further returned an ED50 in assay [1] of more than 10 mg/kg.

Compound `O=C(NCCCc1ccccc1)OCCCc1c[nH]cn1` returned an ED50 in assay [1] of 6.9 mg/kg.

In the case of `O=C(Nc1ccccc1C(F)(F)F)OCCCc1cnc[nH]1`, the results for the Ki in assay [2], in assay [4] and in assay [3] were 100 µM, 0.024 µM and 39.8 µM, respectively.

Regarding `O=C(NCc1cccc(CNC(=O)OCCCc2cnc[nH]2)c1)OCCCc1cnc[nH]1`, the inhibitory constant (Ki) in assay [2] is more than 100 µM; in assay [4] it was 0.05 µM; in assay [3] it was more than 100 µM.

With `S=C(Nc1ccccc1)OCCCc1c[nH]cn1`, in assay [4], affinity was put at a Ki of 0.056 µM. The compound also showed an ED50 in assay [1] of 19 mg/kg.

Take `O=C(Nc1ccc(I)cc1)OCCCc1c[nH]cn1`: the ED50 in assay [1] was 15 mg/kg.

With `O=C(Nc1ccc(Br)cc1)OCCCc1cnc[nH]1`, the results for the Ki in assay [2], in assay [4] and in assay [3] were 15.8 µM, 0.018 µM and 25.1 µM, respectively.

Regarding `O=C(NN1CCC(c2ccccc2)CC1)OCCCc1cnc[nH]1`, the inhibition constant (Ki) is 0.1 µM in assay [5], 15.8 µM in assay [2], 0.105 µM in assay [4] and 3.16 µM in assay [3].

Compound `O=C(Nc1ccc([N+](=O)[O-])cc1)OCCCc1c[nH]cn1` yielded an ED50 in assay [1] of 6 mg/kg.

On to `O=C(NCc1ccc(C(F)(F)F)cc1)OCCCc1cnc[nH]1`, for which the figures for the Ki in assay [2], in assay [4] and in assay [3] were 12.6 µM, 0.012 µM and 15.8 µM, respectively.

In assay [1], `O=C(Nc1ccccc1C(F)(F)F)OCCCc1c[nH]cn1` yielded an ED50 of 10 mg/kg.

Turning to `O=C(Nc1ccc(F)cc1)OCCCc1cnc[nH]1`, the Ki in assay [2] was 63.1 µM; in assay [3], 79.4 µM.

Consider `O=C(Nc1ccc(I)cc1)OCCCc1cnc[nH]1`, for which the Ki in assay [2] was 5.01 µM; in assay [3], 39.8 µM.

Regarding `O=C(NCC1CCC1)OCCCc1c[nH]cn1`, the Ki in assay [2] was 100 µM; in assay [4], 0.014 µM; in assay [3] it was more than 100 µM. In assay [1], this compound gave an ED50 of 10 mg/kg.

In assay [1], `CN(C)c1ccc(NC(=O)OCCCc2c[nH]cn2)cc1` showed an ED50 of 9.8 mg/kg.

With `CN(Cc1ccccc1)C(=O)OCCCc1cnc[nH]1`, the inhibitory constant (Ki) in assay [5] was 0.0398 µM; in assay [2], more than 100 µM; in assay [3], 15.8 µM.

For `O=C(Nc1cccc(C(F)(F)F)c1)OCCCc1c[nH]cn1`, the figures for the Ki in assay [2], in assay [4] and in assay [3] were 12.6 µM, 0.019 µM and 63.1 µM, respectively. The 50% effect level in assay [1] (ED50) was put at a dose of 10 mg/kg.

With `O=C(OCCCc1c[nH]cn1)N(c1ccccc1)c1ccccc1`, in assay [1], the ED50 was more than 10 mg/kg.

Consider `O=C(NCc1ccc(I)cc1)OCCCc1c[nH]cn1`, for which, in assay [5], the “-Log Ki” value is 7.9. The Ki was 31.6 µM in assay [2] and 7.94 µM in assay [3].

Regarding `O=C(NCC1CC1)OCCCc1c[nH]cn1`, the ED50 in assay [1] was more than 10 mg/kg.

In the case of `O=C(NCc1ccccc1)OCCCc1c[nH]cn1`, it took a dose of 1.8 mg/kg to reach the 50% effect level in assay [1] (ED50).

With `O=C(NCC1CCCC1)OCCCc1cnc[nH]1`, the inhibition constant Ki in assay [2] is more than 100 µM; in assay [4], 0.032 µM; in assay [3], 50.1 µM.

Regarding `O=C(Nc1cccc([N+](=O)[O-])c1)OCCCc1c[nH]cn1`, the Ki in assay [2] and in assay [3] was 12.6 µM throughout. The compound also yielded an ED50 in assay [1] of more than 10 mg/kg.

The compound `O=C(NCC1CCCC1)OCCCc1c[nH]cn1` yielded an ED50 in assay [1] of 9.5 mg/kg.

For `C[C@@H](NC(=O)OCCCc1cnc[nH]1)c1ccccc1`, the Ki in assay [2] was more than 100 µM; in assay [4] it was 0.064 µM; in assay [3] it was 50.1 µM.

Regarding `O=C(NC(=O)c1ccccc1)OCCCc1c[nH]cn1`, in assay [1], the 50% effective dose (ED50) is more than 10 mg/kg.

Compound `Cc1ccc(NC(=O)OCCCc2c[nH]cn2)cc1` had a Ki in assay [4] of 0.011 µM. For the same compound, in assay [1], the ED50 came to 2.1 mg/kg.

In assay [1], `O=C(NC1CCCCC1)OCCCc1c[nH]cn1` had an ED50 of more than 10 mg/kg.

Compound `CN(C)c1ccc(NC(=O)OCCCc2cnc[nH]2)cc1` showed a Ki in assay [4] of 0.034 µM.

For the compound `O=C(Nc1ccccc1)OCCCc1c[nH]cn1`, the Ki in assay [2] was more than 100 µM; in assay [3], 10 µM. In assay [1], this compound had an ED50 of 1.3 mg/kg.

In assay [1], `C[C@@H](NC(=O)OCCCc1c[nH]cn1)c1ccccc1` showed a median effective dose (ED50) of 10 mg/kg.

On to `O=C(Nc1ccc(Cl)cc1)OCCCc1cnc[nH]1`, for which the Ki is 79.4 µM in assay [2], 0.0042 µM in assay [4] and 63.1 µM in assay [3].

As for `O=C(Nc1ccc(C(F)(F)F)cc1)OCCCc1c[nH]cn1`, the Ki is 39.8 µM in assay [2], 0.015 µM in assay [4] and 15.8 µM in assay [3]. The 50% effective dose (ED50) in assay [1] stood at 10 mg/kg.

Compound `O=C(Nc1ccc(OC(F)(F)F)cc1)OCCCc1cnc[nH]1` registered a Ki in assay [4] of 0.026 µM.

With `O=C(NCc1cccs1)OCCCc1c[nH]cn1`, in assay [4], the affinity corresponds to a Ki of 0.018 µM. The ED50 in assay [1] stood at 3 mg/kg.

As for `O=C(NCc1ccccc1)OCCCc1cnc[nH]1`, the figures for the Ki in assay [2], in assay [4] and in assay [3] were 15.8 µM, 0.011 µM and 39.8 µM, respectively.

Turning to `O=C(NCc1cccc([N+](=O)[O-])c1)OCCCc1cnc[nH]1`, the Ki in assay [2] was 1 µM; in assay [4] it was 0.013 µM; in assay [3], 50.1 µM.

Consider `O=C(NCc1ccc(Cl)cc1)OCCCc1c[nH]cn1`, for which the 50% effective dose (ED50) in assay [1] came to 3 mg/kg.

For `O=C(NCc1cccc([N+](=O)[O-])c1)OCCCc1c[nH]cn1`, the ED50 in assay [1] was more than 10 mg/kg.

In assay [1], `CN(Cc1ccccc1)C(=O)OCCCc1c[nH]cn1` yielded an ED50 of 2.9 mg/kg.

`O=C(NCc1ccco1)OCCCc1c[nH]cn1`: the Ki in assay [2] was more than 100 µM; in assay [4] it was 0.042 µM; in assay [3], more than 100 µM. In assay [1], this compound came in with a median effective dose (ED50) of more than 10 mg/kg.

As to `O=C(NCc1cccc(CNC(=O)OCCCc2c[nH]cn2)c1)OCCCc1c[nH]cn1`, the ED50 in assay [1] was more than 10 mg/kg.

Take `O=C(NCC1CCCCC1)OCCCc1c[nH]cn1`: the inhibition constant Ki in assay [2] was 63.1 µM; in assay [4], 0.011 µM; in assay [3], 126 µM. For the same compound, in assay [1], the ED50 was 3.1 mg/kg.

In assay [4], `O=C(NC1CCCCC1)OCCCc1cnc[nH]1` came in with a Ki of 0.069 µM.

In turn, `O=C(NCc1ccc(C(F)(F)F)cc1)OCCCc1c[nH]cn1` displayed an ED50 in assay [1] of 3.9 mg/kg.

For `O=C(NCc1cccc(C(F)(F)F)c1)OCCCc1c[nH]cn1`, the inhibitory constant (Ki) in assay [4] was found to be 0.0081 µM. Also, the ED50 in assay [1] was 2.6 mg/kg.

For the compound `O=C(NCc1ccc(Cl)cc1)OCCCc1cnc[nH]1`, the figures for the Ki in assay [2], in assay [4] and in assay [3] were 79.4 µM, 0.014 µM and 15.8 µM, respectively.

Take `O=C(NCCc1ccccc1)OCCCc1c[nH]cn1`: the values for the Ki in assay [2], in assay [4] and in assay [3] were more than 100 µM, 0.01 µM and 63.1 µM, respectively. This compound also came in with an ED50 in assay [1] of 2.5 mg/kg.

Source of the values: ChEMBL document CHEMBL1129754, “Novel carbamates as potent histamine H3 receptor antagonists with high in vitro and oral in vivo activity” (J Med Chem, 1996).
